IC50 data for 16 compounds are collected here from patent US7863280B2, “Substituted 2-pyridone derivatives, method for their preparation and their use as medicament” (Sanofi-Aventis Deutschland GmbH, priority 2004, dated 2011).

The target in this experiment is recombinantly expressed human PARP-1 enzyme (Homo sapiens, UniProt P09874). Kind of experiment: PARP enzyme assay. Format: biochemical. To be noted: DNA-activated PARP-1, 200 μM NAD, tritium-labeled NAD incorporation, pH=8.0, room temperature, 1 hour. The procedure: Pharmacological Investigations PARP Enzyme Assay
recombinantly expressed human PARP-1 enzyme, sequence (P09874 whole entry): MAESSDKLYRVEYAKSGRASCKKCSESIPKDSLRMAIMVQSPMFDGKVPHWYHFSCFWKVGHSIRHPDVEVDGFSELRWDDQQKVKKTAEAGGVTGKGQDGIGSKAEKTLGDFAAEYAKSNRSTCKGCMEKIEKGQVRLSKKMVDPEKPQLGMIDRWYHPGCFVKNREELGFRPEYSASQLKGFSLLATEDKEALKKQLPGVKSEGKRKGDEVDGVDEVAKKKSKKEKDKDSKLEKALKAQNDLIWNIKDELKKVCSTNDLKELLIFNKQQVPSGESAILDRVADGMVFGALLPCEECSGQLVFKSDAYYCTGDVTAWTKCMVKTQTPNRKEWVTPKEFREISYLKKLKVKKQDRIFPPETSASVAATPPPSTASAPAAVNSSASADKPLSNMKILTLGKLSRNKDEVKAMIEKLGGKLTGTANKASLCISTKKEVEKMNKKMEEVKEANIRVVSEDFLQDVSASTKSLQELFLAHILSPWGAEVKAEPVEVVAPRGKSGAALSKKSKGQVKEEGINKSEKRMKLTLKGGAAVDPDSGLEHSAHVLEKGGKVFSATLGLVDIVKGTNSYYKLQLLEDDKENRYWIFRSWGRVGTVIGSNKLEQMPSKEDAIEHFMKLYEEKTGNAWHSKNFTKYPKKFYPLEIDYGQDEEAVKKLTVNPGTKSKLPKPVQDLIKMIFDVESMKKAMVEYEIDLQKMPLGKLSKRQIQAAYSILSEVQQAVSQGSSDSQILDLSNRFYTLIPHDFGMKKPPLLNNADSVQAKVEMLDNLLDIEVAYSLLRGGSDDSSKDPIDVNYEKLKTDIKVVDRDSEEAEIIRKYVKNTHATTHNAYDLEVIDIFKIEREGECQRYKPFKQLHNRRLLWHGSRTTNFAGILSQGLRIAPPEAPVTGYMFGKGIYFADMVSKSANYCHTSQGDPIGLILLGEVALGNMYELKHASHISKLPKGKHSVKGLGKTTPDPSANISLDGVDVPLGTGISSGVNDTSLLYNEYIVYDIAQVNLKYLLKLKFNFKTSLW
The half-maximum inhibitor concentration is determined by incubating the substances to be tested with the DNA-activated, recombinantly expressed and purified PARP-1 enzyme. Specifically, various concentrations of the test substance are incubated in 50 μl of reaction solution, which contains 50 mM Tris, 5 mM MgCl2, 1 mM DTT, 200 μM NAD, 0.1 mCi/ml tritium-labeled NAD, 0.1 mg/ml DNA, 0.1 mg/ml histones, 2 μg/ml recombinantly expressed human PARP-1 enzyme, pH=8.0, at room temperature for 1 hour. The reaction is stopped by adding 150 μl of 20% trichloroacetic acid, and the radiolabelled protein constituents are precipitated. After incubation on ice for 10 minutes, the labeled, insoluble constituents are separated off through a glass fiber filter and, after washing with 20% trichloroacetic acid three times, the radioactivity incorporated by the PARP-1 enzyme is measured by radioluminescence. Consideration of the incorporation rates determined in this way as a function of the concentration of the test substance results in the half-maximum inhibitor concentration (IC50) as the concentration of the test substance which reduces the incorporation rate to half the maximum value attainable (incubation without inhibitor).
For `CCc1cc(Nc2cccnc2)c(C)[nH]c1=O` [Example 19, 3-ethyl-6-methyl-5-(pyridin-3-ylamino)-1H-pyridin-2-one], the IC50 (commonly the concentration that inhibits the measured activity by half) was determined as 9.2 µM.

Consider `CCc1cc(Nc2cccc(CO)c2)c(C)[nH]c1=O` [Example 23, 3-ethyl-5-(3-hydroxymethylphenylamino)-6-methyl-1H-pyridin-2-one], for which the IC50 was found to be 9.8 µM.

Take `CCc1cc(Nc2ccc3c(c2)N(C(C)=O)CC3)c(C)[nH]c1=O` [Example 9, 5-(1-acetyl-2,3-dihydro-1H-indol-6-ylamino)-3-ethyl-6-methyl-1H-pyridin-2-one]: the IC50 was 3.4 µM.

As to `CCc1cc(Nc2cccc(C#N)c2)c(C)[nH]c1=O` [Example 1, 3-(5-ethyl-2-methyl-6-oxo-1,6-dihydropyridin-3-ylamino)benzonitrile], the 50% inhibitory concentration (IC50) came to 9 µM.

On to `CCc1cc(Oc2cccc(OC)c2)c(C)[nH]c1=O` [Example 20, 3-ethyl-5-(3-methoxyphenoxy)-6-methyl-1H-pyridin-2-one], for which the concentration for half-maximal inhibition (IC50) worked out at 4.8 µM.

As for `CCc1cc(Nc2cccc(S(C)(=O)=O)c2)c(C)[nH]c1=O` [Example 24, 3-ethyl-5-(3-methanesulfonylphenylamino)-6-methyl-1H-pyridin-2-one], the IC50 is 6.1 µM.

On to `CCc1cc(Nc2ccc(S(=O)(=O)Nc3ccccn3)cc2)c(C)[nH]c1=O` [Example 10, 4-(5-ethyl-2-methyl-6-oxo-1,6-dihydropyridin-3-ylamino)-N-pyridin-2-yl-benzenesulfonamide], for which the half-inhibitory concentration (IC50) came out at 6.2 µM.

`CCc1cc(Nc2ccc(Oc3cccnc3)cc2)c(C)[nH]c1=O` [Example 7, 3-ethyl-6-methyl-5-[4-(pyridin-3-yloxy)phenylamino]-1H-pyridin-2-one]: the IC50 was 4.7 µM.

For the compound `CCc1cc(Nc2ccc(C#N)cn2)c(C)[nH]c1=O` [Example 13, 6-(5-ethyl-2-methyl-6-oxo-1,6-dihydropyridin-3-ylamino)nicotinonitrile], the half-maximal inhibitory concentration (IC50) was 3.9 µM.

Regarding `CCc1cc(Nc2cccc(C(C)=O)c2)c(C)[nH]c1=O` [Example 3, 5-(3-acetylphenylamino)-3-ethyl-6-methyl-1H-pyridin-2-one], the IC50 was found to be 1.3 µM.

With `CCc1cc(Nc2cccc(C(N)=O)c2)c(C)[nH]c1=O` [Example 2, 3-(5-ethyl-2-methyl-6-oxo-1,6-dihydropyridin-3-ylamino)benzamide], the IC50 is 2.2 µM.

`CCc1cc(Nc2ccc(NC(C)=O)cn2)c(C)[nH]c1=O` [Example 12, N-[6-(5-ethyl-2-methyl-6-oxo-1,6-dihydropyridin-3-ylamino)pyridin-3-yl]-acetamide]: the 50% inhibitory concentration (IC50) worked out at 1.1 µM.

Consider `CCc1cc(Nc2cccc(NC(C)=O)c2)c(C)[nH]c1=O` [Example 4, N-[3-(5-ethyl-2-methyl-6-oxo-1,6-dihydropyridin-3-ylamino)phenyl]acetamide], for which the IC50 was found to be 0.8 µM.

As for `CCc1cc(Nc2ccc(S(N)(=O)=O)cc2)c(C)[nH]c1=O` [Example 6, 4-(5-ethyl-2-methyl-6-oxo-1,6-dihydropyridin-3-ylamino)benzenesulfonamide], the half-inhibitory concentration (IC50) worked out at 9.8 µM.

Consider `CCc1cc(Nc2ccc(C(C)=O)cc2)c(C)[nH]c1=O` [Example 18, 5-(4-acetylphenylamino)-3-ethyl-6-methyl-1H-pyridin-2-one], for which the IC50 came out at 4.4 µM.

As for `CCc1cc(Nc2ccncc2)c(C)[nH]c1=O` [Example 15, 3-ethyl-6-methyl-5-(pyridin-4-ylamino)-1H-pyridin-2-one], the IC50 came to 9.5 µM.
